Reference: patent US5922582A, “Indole alkaloid type compound 0089-D” (HIGETA SHOYU Co., Ltd., priority 1998, dated 1999)
≈ marks a conversion by molar mass, not a printed value.

Assays:
L1210 cells = assay: Cytotoxicity on cultured tumor cell line L1210 (MTT); format: cell-based; settings: Mus musculus, L1210, 72 hours, read-out: IC50 (growth of tumor cells)
Description: (§1) Cytotoxicity of compound 0089-D on cultured tumor cell lines, P388, adriamycin resistant P388 (P388/ADR), L1210 and KB was examined in the following manner.
(§2) L1210 was suspended in RPMI1640 medium, P388 and P388/ADR in RPMI1640 medium containing 20 μM of 2-mercaptoethanol, and KB in Dulbecco's MEM medium (any medium contained 10% fetal bovine serum) respectively whereby cell suspension (5.6×10^4 cells/ml) were prepared. The test sample was dissolved in methanol and diluted serially with each medium to give solutions containing the test sample at various concentrations. […] 72 hours thereafter, cell growth was measured by the following calorimetric assay method using 3-(4,5-dimethyl-2-thiazolyl)-2,5-diphenyl-2H-tetrazolium bromide (MTT).
(§3) That is, 20 μl of 2 mg/ml MTT solution was added to each well and the cells were incubated for 4 hours at 37° C. Thereafter, 50 μl of 50% dimethylformamide solution containing 20% sodium dodecyl sulfate was added to each well to dissolve the formed violet formazan crystal, and its absorbance at 570 nm was measured in a microplate reader (immunoreader) and used as an indicator of the growth. […]
(§4) Degree of inhibition=[1--(absorbance in the presence of test sample)/(absorbance in the absence of test sample)]×100

P388 cells = assay: Cytotoxicity on cultured tumor cell line P388 (MTT); format: cell-based; settings: Mus musculus, P388, 72 hours, read-out: IC50 (growth of tumor cells)
Description: as §1, §2, §3, §4

[1] = system: adriamycin-resistant P388 (P388/ADR) cells; assay: Cytotoxicity on adriamycin resistant P388 (P388/ADR) (MTT); format: cell-based; settings: 72 hours, read-out: IC50 (growth of tumor cells)
Description: as §1, §2, §3, §4

KB cells = assay: Cytotoxicity on cultured tumor cell line KB (MTT); format: cell-based; settings: Homo sapiens, 72 hours, read-out: IC50 (growth of tumor cells)
Description: as §1, §2, §3, §4

[2] = system: cultured tumor cells (P388, P388/ADR, L1210 and KB); assay: Cytotoxicity on the cultured tumor cells, overall (MTT); format: cell-based; settings: in words
Description: as §1, §2, §3, §4

Bacillus subtilis PCI189 = assay: Antimicrobial activity, MIC; format: cell-based; settings: Bacillus subtilis PCI189, Muller Hinton broth, 37° C., 24 hours
Description: (§5) The antimicrobial activity of compound 0089-D on various microorganisms was confirmed by determining minimum inhibitory concentration (MIC) on growth.
(§6) The MIC of compound 0089-D for various microorganisms was determined in a Muller Hinton broth (BBL) containing 0.2% glucose according to the regulations of the Japan Chemotherapy Association (The Essentials of Antibiotics, 4th ed., Tokyo University Press, 1992).
(§7) Each test microorganism was prepared at density of 1×10^6 cfu/ml in the above medium to prepare a test microorganism liquid.
(§8) The test sample (compound 0089-D) was dissolved in methanol and diluted in the above Muller Hinton broth by subjecting it to serial 2-fold dilution starting at the concentration of 1 mg/ml. 180 μl of the test microorganism liquid and 20 μl of the test sample solution were put through a pipette to a 96-well micro-titer plate and incubated at 37° C. 24 hours thereafter, growth was examined by the eye to determine MIC.

M. flavescens ATCC14474 = assay: Antimicrobial activity, MIC; format: cell-based; settings: Mycolicibacterium flavescens; M. flavescens ATCC14474, Muller Hinton broth, 37° C., 24 hours
Description: as §5, §6, §7, §8

M. phlei ATCC11758 = assay: Antimicrobial activity, MIC; format: cell-based; settings: Mycolicibacterium phlei; M. phlei ATCC11758, Muller Hinton broth, 37° C., 24 hours
Description: as §5, §6, §7, §8

[3] = system: Micrococcus luteus IFM2066; assay: Antimicrobial activity, MIC; format: cell-based; settings: Micrococcus luteus IFM2066, Muller Hinton broth, 37° C., 24 hours
Description: as §5, §6, §7, §8

[4] = system: Mycobacterium smegmatis ATCC607; assay: Antimicrobial activity, MIC; format: cell-based; settings: Mycolicibacterium smegmatis; Mycobacterium smegmatis ATCC607, Muller Hinton broth, 37° C., 24 hours
Description: as §5, §6, §7, §8

N. asteroides IFM0319 = assay: Antimicrobial activity, MIC; format: cell-based; settings: Nocardia asteroides; N. asteroides IFM0319, Muller Hinton broth, 37° C., 24 hours
Description: as §5, §6, §7, §8

N. brasiliensis IFM0236 = assay: Antimicrobial activity, MIC; format: cell-based; settings: N. brasiliensis IFM0236, Muller Hinton broth, 37° C., 24 hours
Description: as §5, §6, §7, §8

N. farcinica IFM0284 = assay: Antimicrobial activity, MIC; format: cell-based; settings: Nocardia farcinica; N. farcinica IFM0284, Muller Hinton broth, 37° C., 24 hours
Description: as §5, §6, §7, §8

N. nova IFM0290 = assay: Antimicrobial activity, MIC; format: cell-based; settings: N. nova IFM0290, Muller Hinton broth, 37° C., 24 hours
Description: as §5, §6, §7, §8

[5] = system: N. otitidiscaviarum IFM0239; assay: Antimicrobial activity, MIC; format: cell-based; settings: N. otitidiscaviarum IFM0239, Muller Hinton broth, 37° C., 24 hours
Description: as §5, §6, §7, §8

[6] = system: N. pseudobrasiliensis IFM0624; assay: Antimicrobial activity, MIC; format: cell-based; settings: N. pseudobrasiliensis IFM0624, Muller Hinton broth, 37° C., 24 hours
Description: as §5, §6, §7, §8

[7] = system: Nocardia transvalensis IFM0333; assay: Antimicrobial activity, MIC; format: cell-based; settings: Nocardia transvalensis IFM0333, Muller Hinton broth, 37° C., 24 hours
Description: as §5, §6, §7, §8

[8] = system: Aspergillus niger ATCC40606; assay: Antimicrobial activity, MIC (fungi); format: cell-based; settings: Aspergillus niger ATCC40606, Sabouraud's Dextrose liquid medium, 37° C., 24 hours
Description: as §5, §6
(§9) To determine MIC for fungi, Sabouraud's Dextrose liquid medium was used and the density of the test fungi was 1×10^4 cfu/ml.
as §8

[9] = system: Candida albicans ATCC90028; assay: Antimicrobial activity, MIC (fungi); format: cell-based; settings: Candida albicans ATCC90028, Sabouraud's Dextrose liquid medium, 37° C., 24 hours
Description: as §5, §6, §9, §8

various microorganisms = assay: Antimicrobial activity on various microorganisms, overall; format: cell-based; settings: in words
Description: as §5, §6, §7, §9, §8

Micrococcus luteus = assay: Paper disk method, growth inhibition of Micrococcus luteus; format: cell-based; settings: nutrient agar, 30° C., 24 hours
Description: The resulting culture, 150 L, was filtered through a filter cloth whereby the cells were recovered. The operation of extracting the cells was carried out by adding 20 L methanol. The thus-obtained extract was concentrated and evaporated into dryness in an evaporator. 1 L distilled water was added to 4 g of the dried matter to give a suspension, which was then partitioned and extracted 3 times with 1 L of n-hexane. The n-hexane fraction, 3 L, was concentrated and evaporated into dryness in an evaporator, dissolved in 8 ml of an n-hexane:ethyl acetate mixture (20:1) and subjected to silica gel chromatography (column 6 cm×20 cm). After impurities were eluted with 2 L of an n-hexane : ethyl acetate mixture (20 1), compound 0089-D was eluted with 2 L of an n-hexane:ethyl acetate mixture (10:1). Detection of compound 0089-D in the eluted fraction was carried out using growth inhibitory activity on a test microorganism Micrococcus luteus as the indicator by the following paper disk method.
The eluted fraction was adsorbed onto a paper disk and placed on a nutrient agar medium (Difco) on which M. luteus had been spread, and then incubated at 30° C. for 24 hours.

Solubility = format: physicochemical
[10] = system: Nocardia brasiliensis IFM 0089; assay: Susceptibility to antibiotics of the producing strain; format: cell-based
Description: The present strain was cultured in a medium (brain heart infusion containing 2% glucose) at 250 rpm at 30° C. for 72 hours with shaking, and the cells grown in the medium was harvested by centrifugation (3000 rpm×10 minutes) and washed twice with distilled water. Further, the cells were washed with ethanol and then dried under vacuum to give the dried cells. The amino acid composition, sugar composition and lipid composition of the cell wall of this dried cells were examined on the basis of Bergey's Manual of Determinative Bacteriology, 9th ed., Williams, Baltimore, 1993. Meso-diaminopimelic acid was detected in the amino acid analysis, and arabinose and galactose were detected in the sugar analysis. The presence of mycolic acid was confirmed from the result of the lipid analysis, and its type was Nocardia type. Isoprenoid quinone, i.e., a cell lipid component was confirmed to contain MK-8 (H4) cycle as a major component. The present strain was identified as Nocardia brasiliensis, further from its ability to assimilate casein, hypoxanthine and tyrosine and from its production pattern of acid from sugar and its susceptibility pattern to antimicrobial agents as shown in Table 4 (Mikami & Yazawa, Susceptibility pattern of pathogenic Nocardia to some selected antimicrobial agents and their usefulness in the identification work in a clinical laboratory: Bull. JFCC "Bulltein of the Japan Federation for Culture Collections", 5: 89-95, 1989).

**Q.** Which results are given for `[C-]#[N+]C(=C\c1cn(C)c2ccccc12)/C=C/C(=C)C` [Compound 0089-D]?
**A.** IC50 (L1210 cells): 0.25 mg/L (≈ 1.01 µM); IC50 (P388 cells): 0.44 mg/L (≈ 1.77 µM); IC50 [1]: 0.56 mg/L (≈ 2.26 µM); IC50 (KB cells): 0.75 mg/L (≈ 3.02 µM); cytotoxicity on the cultured tumor cells [2]: strong cytotoxicity; MIC (Bacillus subtilis PCI189): 3.13 mg/L (≈ 12.6 µM); MIC (M. flavescens ATCC14474): 3.13 mg/L (≈ 12.6 µM); MIC (M. phlei ATCC11758): 1.56 mg/L (≈ 6.28 µM); MIC [3]: 3.13 mg/L (≈ 12.6 µM); MIC [4]: 0.78 mg/L (≈ 3.14 µM); MIC (N. asteroides IFM0319): 12.5 mg/L (≈ 50.3 µM); MIC (N. brasiliensis IFM0236): 25 mg/L (≈ 101 µM); MIC (N. farcinica IFM0284): 12.5 mg/L (≈ 50.3 µM); MIC (N. nova IFM0290): 1.56 mg/L (≈ 6.28 µM); MIC [5]: 6.25 mg/L (≈ 25.2 µM); MIC [6]: 3.13 mg/L (≈ 12.6 µM); MIC [7]: 3.13 mg/L (≈ 12.6 µM); MIC [8]: 0.39 mg/L (≈ 1.57 µM); MIC [9]: 25 mg/L (≈ 101 µM); antimicrobial spectrum (various microorganisms): wide antimicrobial spectrum; inhibition zone of growth (Micrococcus luteus): inhibition zone of growth of M. luteus; Solubility (Solubility; ether): Soluble; Solubility (Solubility; ethyl acetate): Soluble; Solubility (Solubility; hexane): Slightly soluble; Solubility (Solubility; methanol): Soluble; Solubility (Solubility; water): Insoluble

**Q.** With `O=c1[nH]cc(F)c(=O)[nH]1` [Compound 5-FU, 5-FU] as the molecule, how does the Susceptibility to antibiotics [10] read?
**A.** negative

**Q.** Which Susceptibility to antibiotics [10] does the source give for `NC[C@H]1O[C@H](O[C@H]2[C@H](O)[C@@H](O[C@H]3O[C@H](CO)[C@@H](O)[C@H](N)[C@H]3O)[C@H](N)C[C@@H]2N)[C@H](N)C[C@@H]1O` [tobramycin] here?
**A.** positive

**Q.** Which Susceptibility to antibiotics [10] does the source give for `C[C@@H](O)[C@H]1C(=O)N2C(C(=O)O)=C(SCCN=CN)C[C@H]12` [imipenem] here?
**A.** negative

**Q.** With `NC[C@H]1O[C@H](O[C@H]2[C@H](O)[C@@H](O[C@H]3O[C@H](CO)[C@@H](O)[C@H](N)[C@H]3O)[C@H](N)C[C@@H]2N)[C@H](O)[C@@H](O)[C@@H]1O` [kanamycin] as the molecule, how does the Susceptibility to antibiotics [10] read?
**A.** negative
